Data on one substance can be found in US7312024B2, “Materials and methods to inhibit Hodgkin and Reed Sternberg cell growth” (Amgen Canada Inc., priority 1999, dated 2007).

For the assay, the system named is HDLM2 cells. Put plainly: [3H]-thymidine incorporation proliferation of HDLM2 cells after neutralization of IL-13. It counts as cell-based, human. To be noted: IL-13 0.5-200 ng/ml. The protocol:
To investigate the effects of IL-13 and IL-5 on the proliferation of H/RS cells, L428, KMH2 and HDLM2 cells were incubated with either (i) medium alone, (ii) medium containing neutralizing antibodies to IL-13 or IL-5, or (ii) isotype matched control antibodies. Proliferation was measured by determining [^3H]-thyridine incorporation at 24, 48, or 72 hours after treatment.
HD-derived L428, KMH2, and HDLM2 cells and LCL control cells (2×10^4/well) were cultured in 96-well flat-bottom plates for 24 hours, 48 hours, or 72 hours in the presence of anti-IL-13, anti-IL-5, or isotype control antibodies at 5, 10, 20, 30, 50, 100 or 150 μg/ml. Cells were treated either with IL-13 (0.5, 1, 5, 10, 50, 100 and 200 ng/ml), or with these same doses of IL-13 combined with 20 μg/ml anti-IL-13 monoclonal antibody. Tritium-labeled thymidine (1 μCi/well) was added to each well and incubation continued for eight hours. Cells were harvested on filters and incorporation of […] into cellular DNA was measured as previously described [Shahinian, et al., Science 261:609-12 (1993)]. The viability of cultured cell lines after treatment with anti-IL-13 neutralizing antibodies was examined by 7-aminoactinomycin D (7-AAD) staining.
(Uptake of a labelled nucleoside into DNA is a usual measure of proliferation.)

On to “IL-13: exogenous IL-13 cytokine added to cells”, for which the “proliferation with exogenous IL-13 alone versus untreated cells” value is “did not result in an increase in proliferation”.
